In PMC12040169 (PLOS Biology, 2025):

Experiment: in vitro
Conditions: human, hela cells, % viability

| Structure (SMILES) | viability at 28.5 h, 10 µM [%] |
| --- | --- |
| N#Cc1ccc(NCc2ccccc2CN2CCCC2CO)cn1 (stereo not drawn) [CBK304077] | 97.9 |
| Cc1nnc(CN2CCOc3ccc(Br)cc3C2)o1 [CBK304079] | 99 |
| CCOC(=O)c1csc(C2CCCN2C(=O)c2ccoc2C)n1 (stereo not drawn) [CBK304080] | 109 |
| Cc1nc(CCNC(=O)c2cc(C(C)C)n(C(C)(C)C)n2)cs1 [CBK304082] | 89.2 |
| CNC(=O)c1ccc(CN(Cc2noc(C(C)C)n2)C2CC2)cc1 [CBK304084] | 83 |
| Cn1cc(C2C[S+]([O-])CCN2Cc2csc3ccccc23)cn1 (stereo not drawn) [CBK304085] | 103 |
| CNS(=O)(=O)c1cccc(C(C)NC(=O)N2CCC(COC)CC2)c1 (stereo not drawn) [CBK304087] | 90.4 |
| CC(C)c1ccc(C(=O)NC2CCN(CC(F)(F)F)C2=O)nc1 (stereo not drawn) [CBK304089] | 108 |
| COCCN(C(=O)c1nc2cccnc2s1)C1CCS(=O)(=O)C1 (stereo not drawn) [CBK304091] | 97 |
| COCCc1noc(CC2CCN(c3ccc(C#N)nc3)CC2)n1 [CBK304094] | 89.9 |
| Cc1csc2c(N3CCC(OCCN4CCCC4)CC3)ncnc12 [CBK304095] | 84 |
| CCN(CC1CCN(c2ccccn2)CC1)C(=O)C1(C#N)CCCC1 [CBK304096] | 98.7 |
| CCOC(=O)C(NC(=O)c1cn(C)cn1)c1cccc(C)c1C (stereo not drawn) [CBK304098] | 107 |
| CCOC(=O)C1CCCN(C(=O)Cn2ccc3sccc3c2=O)C1 (stereo not drawn) [CBK304099] | 100 |
| Cc1cccc(OCC(C)NC(=O)N2CCCC2c2cnn(C)c2)c1 (stereo not drawn) [CBK304100] | 91.6 |
| Cc1ccc(CS(=O)(=O)N(CCO)C2CCC2)c(F)c1 [CBK304101] | 82.2 |
| Cc1nnc(CS(=O)(=O)Cc2csc(C(C)C)n2)n1C1CC1 [CBK304106] | 101 |
| CC(C)(C)n1cc(C(=O)N2CCNCC2c2cccc(Cl)c2)cn1 (stereo not drawn) [CBK304112] | 96.9 |
| Cc1cc(C)n(CC(=O)N2CCNCC2c2cccc(Cl)c2)n1 (stereo not drawn) [CBK304116] | 92.7 |
| CCc1n[nH]c(C2CN(Cc3nc4c(F)cccc4[nH]3)CCO2)n1 (stereo not drawn) [CBK304117] | 90.9 |
| O=C(c1cnc(-c2ccncc2)s1)N(CC(F)(F)F)C1CCC1 [CBK304119] | 84.1 |
| Cc1ncccc1-c1csc(C2CCCO2)n1 (stereo not drawn) [CBK304121] | 117 |
| CC1CNCCN1C(=O)c1ccnc(N2CCN(C)CC2)c1 (stereo not drawn) [CBK304122] | 88.6 |
| CCOC(=O)c1csc(C2CCCN2C(=O)c2ccsc2)n1 (stereo not drawn) [CBK304125] | 77.5 |

| Structure (SMILES) | viability at 28.5 h, 10 µM [%] |
| --- | --- |
| Cc1cnc(NC(=O)N2CCOC(c3ccc(F)cc3F)C2)s1 (stereo not drawn) [CBK304126] | 88.5 |
| CC(C(=O)N(CCC#N)Cc1cccnc1)n1cnc2ccccc21 (stereo not drawn) [CBK304127] | 92.5 |
| CC(C)c1nc(C2CCCN(c3ncc(C#N)cc3Cl)C2)no1 (stereo not drawn) [CBK304128] | 111 |
| CCn1cc(C2CN(S(=O)(=O)Cc3ccccc3)CCO2)cn1 (stereo not drawn) [CBK304129] | 106 |
| CCOC(=O)C(NC(=O)c1cc[nH]n1)c1cccc(C)c1C (stereo not drawn) [CBK304131] | 85.5 |
| CCc1nnc(CN(C)Cc2c(C)nn(C)c2Cl)o1 [CBK304132] | 90.5 |
| Cc1nc(C)n(CC2CCCN(Cc3cc(=O)n4ccccc4n3)C2)n1 (stereo not drawn) [CBK304135] | 88.5 |
| Cc1ccc(Cc2cnc(NC(=O)NC3CCOC(C)(C)C3)s2)cc1F (stereo not drawn) [CBK304139] | 92.2 |
| Cc1csc(CCNCc2c(C(C)C)nn(C)c2N(C)C)n1 [CBK304140] | 89 |
| CCOc1cc(NC2CCN(C(=O)CC3(O)CCCCC3)CC2)ncn1 [CBK304141] | 81.6 |
| CCCC1CCCN(Cc2nnnn2-c2ccc(S(C)(=O)=O)cc2)C1 (stereo not drawn) [CBK304142] | 89.2 |
| NC(=O)c1ccc(C(=O)NCC2CN3CCCN2CC3)cc1 (stereo not drawn) [CBK304143] | 114 |
| CCc1ccc(C(O)CNC2CCN(CC(F)F)CC2)cc1 (stereo not drawn) [CBK304144] | 109 |
| c1ccc(C(Nc2cnccn2)C2CC2)cc1 (stereo not drawn) [CBK304145] | 106 |
| Cc1nnc(CN(CC2CCCO2)C2CCCC2)n1C1CC1 (stereo not drawn) [CBK304147] | 95.5 |
| CCOC(=O)CN1CCCN(c2c(F)cc(C#N)cc2F)CC1 [CBK304148] | 86.9 |
| CCCc1occc1C(=O)N1CCOCC1C(=O)O (stereo not drawn) [CBK304151] | 97.9 |
| CC(Cc1nc(-c2ccnn2C)cs1)n1cc(Cl)cn1 (stereo not drawn) [CBK304152] | 96.6 |
| COCCc1noc(CC2CCN(c3ncc(C#N)cc3F)CC2)n1 [CBK304153] | 115 |
| CN(Cc1nncn1C)C(=O)c1cnc2c(c1)c(C(C)(C)C)nn2C [CBK304154] | 85.4 |
| Cn1cc(CNCC2CCN(c3ccccc3)C2)c(-c2cccnc2)n1 (stereo not drawn) [CBK304155] | 95.7 |
| CCC(=O)N(C)C(CO)c1cc(OC)ccc1Br (stereo not drawn) [CBK304156] | 95.9 |
| CC(=O)Nc1ccc(NCc2csc(C3CCCO3)n2)c(C(F)(F)F)c1 (stereo not drawn) [CBK304161] | 101 |
| COc1ccc(C)cc1C1(CNC(=O)C2CC(O)CN2)CCOCC1 (stereo not drawn) [CBK304162] | 92 |

| Structure (SMILES) | viability at 28.5 h, 10 µM [%] |
| --- | --- |
| Cc1ccccc1NC(=O)Cc1nc(CN2CCC3(CCOC3)C2)cs1 (stereo not drawn) [CBK304164] | 95.5 |
| CC(C)(O)C(=O)NCc1nc2c(s1)CC(c1ccccc1)CC2 (stereo not drawn) [CBK304165] | 77.3 |
| Cc1cnn(C2CCCN(C(=O)CCCc3cccs3)C2)c1 (stereo not drawn) [CBK304168] | 96.3 |
| CCOC(=O)CN1CC(O)CC1c1cccc(C(F)(F)F)c1 (stereo not drawn) [CBK304169] | 97.9 |
| Cc1nn(C)c(C)c1CN1CCOC(c2nc(C(C)(C)C)cs2)C1 (stereo not drawn) [CBK304170] | 85.6 |
| COCCc1noc(CC2CCN(c3ncc(Cl)cn3)CC2)n1 [CBK304172] | 88.7 |
| CCn1ncnc1CN(c1cccc(CO)c1)C1Cc2ccccc2C1 [CBK304173] | 111 |
| CCOC(=O)C(NC(=O)c1cn[nH]c1)c1cccc(C)c1C (stereo not drawn) [CBK304175] | 92.8 |
| CCc1nn(C)cc1CNC1CCCN(c2ccc(C#N)cc2)C1=O (stereo not drawn) [CBK304176] | 96.4 |
| COCCc1noc(CC2CCN(c3nc(C)cc(C#N)n3)CC2)n1 [CBK304179] | 88.5 |
| CSc1nnnn1-c1cccc(NC(=O)N2CCCN(C)CC2)c1 [CBK304180] | 78.1 |
| Cc1cc(NC(=O)CN(C)c2ncccc2C#N)no1 [CBK304182] | 77.7 |
| CSc1ccccc1C(=O)Nc1sc2c(c1C#N)CCN(C(C)=O)C2 [CBK304183] | 55.3 |
| CC(C(=O)NC1CCCN(CC(F)(F)F)C1)n1cnc2ccccc21 (stereo not drawn) [CBK304185] | 96.6 |
| O=C1NC2(CCOCC2)C(=O)N1Cc1ncc(-c2cccs2)o1 [CBK304187] | 92 |
| COCCn1c(SCC(=O)N2CCCc3ccccc32)nc(O)cc1=O [CBK304191] | 59.5 |
| Cc1ccsc1C(=O)Nc1ncn(CC(=O)N2CCCCCC2)n1 [CBK304192] | 92.5 |
| CCn1nc(C)c(CNC(=O)N(Cc2ccccn2)CC(C)C)c1C [CBK304193] | 92.1 |
| Cc1nccn1C1CCCN(C(C)C(=O)NC2(C#N)CCCCC2)C1 (stereo not drawn) [CBK304194] | 87.3 |
| CCn1cc(CN(CCO)C(=O)c2cccc(C#N)c2C)cn1 [CBK304196] | 109 |
| CCc1cc(=O)[nH]c(-c2ccc(N3CCCC3C(=O)N(C)C)nc2)n1 (stereo not drawn) [CBK304197] | 89.2 |
| Cc1nc(-c2cccnc2)[nH]c(=O)c1CCC(=O)N1CC2CCC1C2 (stereo not drawn) [CBK304198] | 82.3 |
| CCOC(=O)c1cnc2ccc(OC)cc2c1NCCN1CCOCC1 [CBK304199] | 87.7 |
| COc1c(C)[nH]cc(CN(C)CCC(=O)Nc2cccc(F)c2)c1=O [CBK304201] | 90.5 |

| Structure (SMILES) | viability at 28.5 h, 10 µM [%] |
| --- | --- |
| CC(C)CC(CO)Nc1ncnc2ccc(S(C)(=O)=O)cc12 (stereo not drawn) [CBK304203] | 107 |
| CCOCC1CCN(C(=O)c2ncsc2Nc2ccccc2)C1 (stereo not drawn) [CBK304204] | 117 |
| Cc1cc(NC(=O)N(Cc2cnn(C)c2)CC(C)C)ccc1F [CBK304206] | 105 |
| CC(Cn1cncn1)NC(=O)c1cccc(S(=O)(=O)NC2CCCC2)c1 (stereo not drawn) [CBK304209] | 89 |
| CCOC(=O)C1CCCN(C(=O)Cn2cnc(-c3cccs3)cc2=O)C1 (stereo not drawn) [CBK304210] | 89.3 |
| Cc1c(CN(C)CC(=O)Nc2ccc(Br)cc2Cl)cnn1C [CBK304214] | 86 |
| CCc1ccc(C(O)CNC2CCN(c3nccs3)CC2)cc1 (stereo not drawn) [CBK304215] | 94.3 |
| O=C(Nc1cc(N2CCCS2(=O)=O)ccc1F)c1n[nH]c2ccccc12 [CBK304216] | 80.5 |
| Cc1ccccc1Nc1nc(N)nc(CN2CCN(C)CC2)n1 [CBK304217] | 89.9 |
| CC(C)Cn1cnc(S(=O)(=O)N2CCN(CC(=O)NC3CC3)CC2)c1 [CBK304223] | 95.8 |
| CCn1cc(C2CN(S(=O)(=O)c3cc(C)c(OC)cc3C)CCO2)cn1 (stereo not drawn) [CBK304225] | 84.9 |
| CCn1cc(C2CN(S(=O)(=O)c3cccc(C)c3Cl)CCO2)cn1 (stereo not drawn) [CBK304226] | 91.3 |
| CCn1cc(C2CN(S(=O)(=O)c3cccc(C(C)C)c3)CCO2)cn1 (stereo not drawn) [CBK304227] | 105 |
| COCC(O)CN(C)C(=O)c1ccc(Oc2cccc(Br)c2)nc1 (stereo not drawn) [CBK304229] | 94 |
| O=C(c1cnn(-c2ccc(Cl)cc2Cl)c1)N1CCOCC1c1ncon1 (stereo not drawn) [CBK304231] | 84.5 |
| CCn1cc(C2CN(S(=O)(=O)c3ccccc3OC(F)F)CCO2)cn1 (stereo not drawn) [CBK304234] | 106 |
| COC(=O)C1CCN(C(=O)c2ccc(Oc3cccc(Br)c3)nc2)CC1 [CBK304235] | 103 |
| O=C(c1cc(S(=O)(=O)N2CCOCC2)ccc1Cl)N1CCCC(CO)C1 (stereo not drawn) [CBK304236] | 104 |
| CCC(c1ccc2c(c1)CCO2)N1CCN(Cc2nc(C)no2)CC1 (stereo not drawn) [CBK304237] | 90.3 |
| CC1CNCCN1C(=O)c1cnn(-c2cccc(Cl)c2)c1 (stereo not drawn) [CBK304238] | 94.1 |
| CC(=O)Nc1cccc(NC(=O)CN(CCO)C2CCCCC2)c1 [CBK304239] | 85.7 |
